The species named for this assay is Cavia porcellus. Put plainly: Tested for antagonism of the contractile effect on guinea pig ileum preparations. In kind it is functional. Particulars: read-out: pA2 (converted).

Molecules are shown by their SMILES.

`COc1ccccc1[C@H](C)C(=O)N1C[C@@H]2[C@H](C1)C(c1ccccc1)(c1ccccc1)CC[C@@]2(O)c1ccccc1OC` [DAPITANT]: the Kb was 8.91 nM.

These data come from ChEMBL document CHEMBL1127259, “Synthesis of RPR 100893, prototype of a new series of potent and selective non peptide NK1 antagonists : the triarylperhydroisoindolols” (Bioorg Med Chem Lett, 1994).
